Measured values: paper PMC11173533, “Baicalin and Baicalein Enhance Cytotoxicity, Proapoptotic Activity, and Genotoxicity of Doxorubicin and Docetaxel in MCF-7 Breast Cancer Cells” (Molecules, 2024)
“And” between values parts separate entries of the source, which are not always exact repeats. Equal values may be shown once.

Tests used:
MCF-7 cells [1] = test: Cytometric measurement of doxorubicin accumulation in MCF-7 cells; assay type: cell-based, human; details: 22 h preincubation with flavonoid IC50, after 20 min of drug
Protocol: The aromatic rings in the hydrophobic part of doxorubicin give the drug molecule fluorescent properties (λex = 490 nm, λem = 590 nm). Thus, the flow cytometric measurement of drug fluorescence inside the cells allows for the monitoring of its transport rate through the cell membrane. The increase in the intensity of drug fluorescence inside the cells is highly correlated with its accumulation.
The DOX was added to the cell suspension to achieve a final concentration equal to the IC50 value. During one hour of incubation (temp 37 °C) with the drug, samples for cytometric measurement were taken from the cell suspension after the first 5 min and then after every 10 min. Samples were analyzed using the flow cytometer LSR® II from Becton Dickinson (San Jose, CA, USA) using an argon laser with a wavelength of λ = 488 nm. Doxorubicin fluorescence intensity was calculated per single cell.

HUVEC-ST cells [2] = test: Alkaline comet assay in HUVEC-ST cells; assay type: cell-based, human; details: doxorubicin IC50 + flavonoid IC50 preincubation, longest postincubation time (48 h)
Protocol: (§1) Unless otherwise indicated, in experiments, cells were seeded at an appropriate density for the specific assay into 96-well plates or Petri dishes. They were then incubated in standard culture conditions, which included a temperature of 37 °C, 100% relative humidity, and a 5% CO2 incubator. […] After treatment, the cells were washed with PBS and, depending on the experiment, immediately used for measurement or cultured in a fresh medium for 24 or 48 h. Control cells were treated with a corresponding volume of PBS. Additional controls for solvents were also performed.
The comet assay, also known as the single-cell gel electrophoresis assay, is a highly sensitive and versatile method for measuring single- and double-stranded DNA breaks. The assay uses an electric field to move negatively charged DNA fragments through an agarose gel. The amount of migration reflects the level of DNA damage in the cells.
The analysis was performed under alkaline conditions, according to the method of Singh et al., on cells immediately after the treatment and 24 or 48 h postincubation. A suspension of cells was mixed with low-melting-point agarose (LMP type XI) and spread onto a microscope glass slide previously coated with standard melting point agarose (NMP type I). After 2 h of cells lysis in a buffer containing (2.5 mol/L NaCl, 100 mmol/L Na2-EDTA, 10 mmol/L TRIS, 1% Triton X-100), DNA unwinding and electrophoresis were carried out in a buffer containing (1 mmol/L Na2-EDTA, 300 mmol/L NaOH) and (29 V, 30 mA). Before analysis, the slides were stained with DAPI solution (2 μg/mL). One hundred randomly chosen cells were analyzed on each slide using a fluorescence microscope Zeiss Axio Scope A1 (Carl Zeiss, Oberkochen, Germany) with a video camera connected to the image-analysis system Lucia-Comet v. 7.60 (Laboratory Imaging, Praha, Czech Republic).

MCF-7 cells [3] = test: MTT cell viability assay on MCF-7 cells; assay type: cell-based, human; details: for IC50: Homo sapiens, MCF7, read-out: Inhibitory concentration IC50 (reduces cell viability by 50%); for IC50 / Inhibitory concentration IC10 (reduces cell viability by 10%): MCF-7 cell line, 24 h incubation, MTT; for Concentrations giving statistically significant reduction in the number of living cells: MCF-7, 24 h incubation with flavonoid, p < 0.05 vs control; for Viable cells: MCF-7, doxorubicin 3 µmol/L after 22 h preincubation with flavonoid IC50
Protocol: as §1
(§2) The principle of the method is a measurement of the absorbance of formazan, a product of the reduction of the water-soluble tetrazolium salt (MTT) by NADPH-dependent cellular oxidoreductases (mainly succinate dehydrogenase) in living cells. Formazan is insoluble in water and precipitates as purple crystals. The amount of formazan is proportional to the number of living and metabolically active cells.
(§3) After treatment, the cells were washed with PBS and cultured in a fresh medium for 48 h. Subsequently, the medium was aspirated, and an aliquot of 50 µL of 0.05 mg/mL MTT solution was added to each microplate well for 3 h. The formazan crystals were dissolved in dimethyl sulfoxide (DMSO), and the absorbance was measured at a wavelength of λ = 580 nm. The percentage of viable cells was calculated by comparing the absorbance value of the test samples to the absorbance value of the control, taking the absorbance of the control as 100%.

MCF-7 cells [4] = test: Flavonoid-drug combination index (MTT, CompuSyn) in MCF-7 cells; assay type: cell-based, human
Protocol: (§4) The experiment with a non-constant combination of BLIN and BLEIN with DOX or DTX was carried out to determine the synergistic, additive, or antagonistic effect between investigated flavonoids and anticancer drugs. […] Subsequently, cell viability was determined by MTT assay. […] The results were presented as a combination index (CI).

HUVEC-ST cells [5] = test: Mitochondrial membrane potential (JC-1) in HUVEC-ST cells; assay type: cell-based, human
Protocol: as §1
The mitochondrial membrane potential was measured with the membrane-permeant JC-1 fluorescent probe. […] Thus, the measurement of the ratio of JC-1 dimer to monomer fluorescence can be used for estimating changes in mitochondrial membrane potential (ΔΨm).
The cells were then incubated in complete darkness for 30 min at 37 °C. After incubation, the cells were washed to remove the dye and suspended in fresh HBSS solution. Finally, the fluorescence intensity was measured using a Cary Eclipse spectrofluorometer (Varian, Inc.) at λex/em = 475 nm/530 nm for monomers and at λex/em = 535 nm/590 nm for dimers. Subsequently, the ratio of the fluorescence intensities at 530 nm/590 nm was calculated. The mitochondrial potential in both cell lines was measured immediately after incubation with investigated compounds. The results are expressed as a percentage of the control, considered 100%.

HUVEC-ST cells [6] = test: MTT cell viability assay on HUVEC-ST cells; assay type: cell-based, human; details: for Inhibitory concentration IC10 (reduces cell viability by 10%) / IC50: HUVEC-ST cell line, 24 h incubation, MTT; for Concentrations that significantly decreased cell viability: HUVEC-ST, 24 h incubation with flavonoid, p < 0.05 vs control; for IC50: Homo sapiens, read-out: Inhibitory concentration IC50 (reduces cell viability by 50%)
Protocol: as §1, §2, §3

HUVEC-ST cells [7] = test: Flavonoid-drug combination index (MTT, CompuSyn) in HUVEC-ST cells; assay type: cell-based, human
Protocol: as §4

HUVEC = system: HUVEC; parameters: method as in Liu et al. [53]; details: 50 µmol/L, 48 h; ref Liu et al. [53]; cited from earlier work
[8] = flavonoid IC10 22 h preincubation + DOX IC50 2 h
[9] = flavonoid IC10 22 h preincubation + DTX IC50 2 h
[10] = flavonoid IC50 22 h preincubation + DOX IC50 2 h
[11] = flavonoid IC50 22 h preincubation + DTX IC50 2 h
[12] = flavonoid IC50 alone 24 h, control = 100%

Compound | Amount of doxorubicin in cells relative to cells not treated with flavonoids (MCF-7 cells [1]) | DNA in the comet tail (HUVEC-ST cells [2]) | IC50 (MCF-7 cells [3]) | Concentrations giving statistically significant reduction in the number of living cells (MCF-7 cells [3]) | Viable cells (MCF-7 cells [3]) | Inhibitory concentration IC10 (reduces cell viability by 10%) (MCF-7 cells [3]) | Combination index (CI) (MCF-7 cells [4]; [8]) | Combination index (CI) (MCF-7 cells [4]; [9]) | Combination index (CI) (MCF-7 cells [4]; [10]) | Combination index (CI) (MCF-7 cells [4]; [11]) | Mitochondrial membrane potential ΔΨm, % of control (HUVEC-ST cells [5]; [12]) | Inhibitory concentration IC10 (reduces cell viability by 10%) (HUVEC-ST cells [6]) | Concentrations that significantly decreased cell viability (HUVEC-ST cells [6]) | IC50 (HUVEC-ST cells [6]) | Combination index (CI) (HUVEC-ST cells [7]; [8]) | Combination index (CI) (HUVEC-ST cells [7]; [9]) | Combination index (CI) (HUVEC-ST cells [7]; [10]) | Combination index (CI) (HUVEC-ST cells [7]; [11]) | Viable HUVECs, % of the control (HUVEC) | also measured
O=c1cc(-c2ccccc2)oc2cc(O)c(O)c(O)c12 [baicalein, 5,6,7-Trihydroxyflavone] | over two times higher | 5% | 95 ± 4.8 µM | ≥ 10 µmol/L | 10% | 9 ± 0.7 µM | 1.073 | 1.08 | 0.3412 | 0.6276 | 59% | 75 ± 1.8 µM | ≥ 56 µmol/L | 115 ± 2.6 µM | 0.8721 | 0.9611 | 0.6801 | 0.4428 | 37% ± 3% | Mitochondrial membrane potential ΔΨm, % of control (HUVEC-ST cells [5]; doxorubicin IC50 after 22 h preincubation with flavonoid IC50): 33%; Mitochondrial membrane potential ΔΨm (HUVEC-ST cells [5]; doxorubicin IC50 after preincubation with flavonoid in low concentration (IC10)): increasing ΔΨm to the level of control
O=C(O)[C@H]1O[C@@H](Oc2cc3oc(-c4ccccc4)cc(=O)c3c(O)c2O)[C@H](O)[C@@H](O)[C@@H]1O [baicalin, baicalein 7-O-β-D-glucuronide] | over two times higher | 3% | 250 ± 10.5 µM | ≥ 56 µmol/L | 21% | 36 ± 3.4 µM | 1.158 | 0.9652 | 0.6435 | 0.5421 | 72% | 101 ± 10.7 µM | ≥ 112 µmol/L | 167 ± 6.7 µM | 2.915 | 0.9948 | 1.794 | 3.1 and 3.137 | 61% ± 8% | –
